Reference: ChEMBL document CHEMBL5247637, “Rational design, synthesis and biological evaluation of novel 2-(substituted amino)-[1,2,4]triazolo[1,5-a]pyrimidines as novel tubulin polymerization inhibitors” (Eur J Med Chem, 2022)

Tests used:
Tubulin (Homo sapiens) = Tubulin (Homo sapiens) (UniProt P68371+Q9H4B7+P0DPH7+P68366+Q13509+Q71U36+P04350+Q3ZCM7+P07437+P68363+Q9BQE3+Q6PEY2+Q13885+Q9BVA1+Q9BUF5); assay: Inhibition of tubulin polymerization (unknown origin) at 10 uM incubated for 0.5 hrs in presence of GTP by spectrophotometer analysis relative to control; type: protein-complex assay
Tubulin = assay: Inhibition of tubulin polymerization (unknown origin) incubated for 0.5 hrs in presence of GTP by spectrophotometer analysis; type: protein-complex assay, Homo sapiens
A549 = assay: Antiproliferative activity against human A549 cells assessed as inhibition of cell growth measured after 48 hrs by MTT assay; type: functional, cell-based; conditions: A549, 48 h
T47D = assay: Antiproliferative activity against human T47D cells assessed as inhibition of cell growth measured after 48 hrs by MTT assay; type: functional, cell-based

| inhibition (Tubulin (Homo sapiens)) | IC50 (Tubulin) | Compound | IC50 (A549) | IC50 (T47D) |
| --- | --- | --- | --- | --- |
| 43% | 4.9 µM | COc1ccc(Nc2nc3nccc(-c4cc(OC)c(OC)c(OC)c4)n3n2)cc1O | – | – |
| 56% | 9.9 µM | COc1ccc(C2C(C(C)=O)=C(C)N=C3N=C(c4cc(OC)c(OC)c(OC)c4)NN32)cc1[N+](=O)[O-] (configuration not stated) | – | – |
| – | – | COc1ccc(/C=C\c2cc(OC)c(OC)c(OC)c2)cc1O [COMBRETASTATIN A4] | 0.027 µM | 0.021 µM |
| 78% | – | COc1ccc(Nc2nc3nccc(-c4cc(OC)c(OC)c(OC)c4)n3n2)cc1N | – | – |
